Literature values as cited in patent publication US12042505B2, “Compositions and methods for treating dry eye” (priority 2021, dated 2024).

Conditions: for side effects: background statement on marketed drug

Structure (SMILES) | hydrolysis by cholinesterase (background statement) | side effects | absorption in the gastrointestinal tract (background statement)
CC(C[N+](C)(C)C)OC(N)=O (stereo not shown) [Bethanechol] | not hydrolyzed by cholinesterase | dizziness, drowsiness, lightheadedness, headache, nausea, vomiting, abdominal cramps/pain, diarrhea, increased salivation or urination, headache, slow heart rate followed by fast heart rate, and sweating | –
C[N+](C)(C)CCOC(N)=O [Carbachol] | – | miosis that can diminish ocular focus | not well absorbed in the gastrointestinal tract
CC1OC2(CS1)CN1CCC2CC1 (stereo not shown) [Cevimeline] | – | bladder pain, nausea, vomiting, diarrhea, sweating, rash, headache, runny nose, drowsiness, hot flashes, blurred vision, difficulty sleeping | –
CC[C@@H]1C(=O)OC[C@@H]1Cc1cncn1C [Pilocarpine] | – | miosis, blurred vision, pupillary spasms; topically, it also results in burning and stinging | –
CN(C)C(=O)Oc1ccc[n+](C)c1 [Pyridostigmine] | – | dizziness, drowsiness, lightheadedness, headache, nausea, vomiting, abdominal cramps/pain, diarrhea, increased salivation or urination, headache, slow heart rate followed by fast heart rate, and sweating | –
